Measured values reported in the NIST ThermoML archive (doi:10.1016/j.tca.2006.01.013).

Assay: xn = mol fraction of the nth substance listed
Details: 101 kPa, Liquid, Vibrating tube method

NCCN [ethane-1,2-diamine] + O
mass density [kg/m3]
Details	288.15 K	293.15 K	298.15 K	303.15 K	308.15 K	313.15 K	318.15 K
x2 = 0.0401	905.79	901.13	896.45	891.76	887.06	882.34	877.6
x2 = 0.0797	909.79	905.15	900.49	895.82	891.14	886.43	881.71
x2 = 0.1199	914.18	909.56	904.92	900.27	895.6	890.91	886.2
x2 = 0.1598	918.88	914.28	909.66	905.03	900.38	895.71	891.01
x2 = 0.2003	923.88	919.29	914.69	910.07	905.43	900.77	896.09
x2 = 0.25	930.08	925.52	920.93	916.33	911.71	907.07	902.4
x2 = 0.2999	936.78	932.23	927.67	923.08	918.47	913.84	909.18
x2 = 0.3497	944.11	939.57	935.02	930.44	925.84	921.21	916.56
x2 = 0.3998	951.74	947.2	942.65	938.08	933.48	928.86	924.21
x2 = 0.4504	959.71	955.18	950.64	946.07	941.48	936.86	932.22
x2 = 0.5001	967.93	963.41	958.87	954.3	949.72	945.1	940.46
x2 = 0.5499	976.43	971.92	967.39	962.83	958.26	953.66	949.04
x2 = 0.5998	984.56	980.1	975.61	971.09	966.55	961.99	957.4
x2 = 0.6499	991.92	987.54	983.14	978.72	974.26	969.77	965.25
x2 = 0.7004	998.03	993.83	989.6	985.34	981.04	976.7	972.33
x2 = 0.7499	1001.68	997.76	993.81	989.81	985.76	981.67	977.53
x2 = 0.8	1002.5	999	995.45	991.83	988.16	984.43	980.63
x2 = 0.84	1001.38	998.31	995.17	991.96	988.67	985.31	981.87
x2 = 0.88	999.21	996.66	994.01	991.27	988.42	985.47	982.43
x2 = 0.9193	997.06	995.08	992.96	990.71	988.32	985.81	983.17
x2 = 0.9599	996.39	995.01	993.42	991.65	989.7	987.59	985.32
